# Assay results: US4476120A, “Thiolic derivatives of erythromycin having therapeutic activity, and pharmaceutical compositions containing them” (Sigma Tau Indistrie Farmaceutiche Riunites, p.A, priority 1982, dated 1984)
# Key:
# Staph. albus SS 03 = assay type: cell-based; conditions: Brain Heart Infusion, estolate and RV11-RV15 previously hydrolized, unit assumed
# Staph. albus SS 04 = assay type: cell-based; conditions: Brain Heart Infusion, estolate and RV11-RV15 previously hydrolized, unit assumed
# Staph. aureus SS 07 [1] = assay type: cell-based; conditions: Brain Heart Infusion, estolate and RV11-RV15 previously hydrolized, unit assumed
# Staph. aureus SS 08 = assay type: cell-based; conditions: Brain Heart Infusion, estolate and RV11-RV15 previously hydrolized, unit assumed
# Staph. aureus SS 09 = assay type: cell-based; conditions: Brain Heart Infusion, estolate and RV11-RV15 previously hydrolized, unit assumed
# Staph. aureus SS 10 = assay type: cell-based; conditions: Brain Heart Infusion, estolate and RV11-RV15 previously hydrolized, unit assumed
# [2] = test system: Strept. haemolyticus SS 17; assay type: cell-based; conditions: Brain Heart Infusion, estolate and RV11-RV15 previously hydrolized, unit assumed
# [3] = test system: Strept. haemolyticus SS 18; assay type: cell-based; conditions: Brain Heart Infusion, estolate and RV11-RV15 previously hydrolized, unit assumed
# Strept. faecalis SS 19 = assay type: cell-based; conditions: Brain Heart Infusion, estolate and RV11-RV15 previously hydrolized, unit assumed
# S. lutea ATCC 9341 = assay type: cell-based; conditions: Brain Heart Infusion, estolate and RV11-RV15 previously hydrolized, unit assumed
# B. subtilis ATCC 6633 = assay type: cell-based; conditions: Brain Heart Infusion, estolate and RV11-RV15 previously hydrolized, unit assumed
# B. subtilis SS 127 = assay type: cell-based; conditions: Brain Heart Infusion, estolate and RV11-RV15 previously hydrolized, unit assumed
# B. anthranis SS 08 = assay type: cell-based; conditions: Brain Heart Infusion, estolate and RV11-RV15 previously hydrolized, unit assumed
# Br. melitensis SS 19 = assay type: cell-based; conditions: unit assumed
# Br. abortus SS 7 = assay type: cell-based; conditions: Brain Heart Infusion, estolate and RV11-RV15 previously hydrolized, unit assumed
# Citrobacter SS 05 = assay type: cell-based; conditions: Brain Heart Infusion, estolate and RV11-RV15 previously hydrolized, unit assumed
# Citrobacter SS 09 = assay type: cell-based; conditions: Brain Heart Infusion, estolate and RV11-RV15 previously hydrolized, unit assumed
# S. infantis SS 08 = assay type: cell-based; conditions: Brain Heart Infusion, estolate and RV11-RV15 previously hydrolized, unit assumed
# E. cloacae SS 07 = assay type: cell-based; conditions: Brain Heart Infusion, estolate and RV11-RV15 previously hydrolized, unit assumed
# E. aerogenes SS 011 = assay type: cell-based; conditions: Brain Heart Infusion, estolate and RV11-RV15 previously hydrolized, unit assumed
# Ps. aeruginosa SS 10 = assay type: cell-based; conditions: Brain Heart Infusion, estolate and RV11-RV15 previously hydrolized, unit assumed
# E. coli SS 04 = assay type: cell-based; conditions: Brain Heart Infusion, estolate and RV11-RV15 previously hydrolized, unit assumed
# E. coli SS 05 = assay type: cell-based; conditions: Brain Heart Infusion, estolate and RV11-RV15 previously hydrolized, unit assumed
# E. coli SS 07 = assay type: cell-based; conditions: Brain Heart Infusion, estolate and RV11-RV15 previously hydrolized, unit assumed
# Pr. mirabilis SS 09 = assay type: cell-based; conditions: Brain Heart Infusion, estolate and RV11-RV15 previously hydrolized, unit assumed
# Pr. vulgaris SS 10 = assay type: cell-based; conditions: Brain Heart Infusion, estolate and RV11-RV15 previously hydrolized, unit assumed
# Kl. aerogenes SS 71 = assay type: cell-based; conditions: Brain Heart Infusion, estolate and RV11-RV15 previously hydrolized, unit assumed
# H. tubercolosis SS 03 = assay type: cell-based; conditions: Brain Heart Infusion, estolate and RV11-RV15 previously hydrolized, unit assumed
# From the text: (§1) In the following table I the MIC/ml values are indicated corresponding to the lowest concentration capable of inducing a complete inhibition of the bacterial development.
# Kl. pneumoniae SS 04 = assay type: cell-based; conditions: Brain Heart Infusion, estolate and RV11-RV15 previously hydrolized, unit assumed
# From the text: as §1
# Sr. marcescens SS 03 = assay type: cell-based; conditions: Brain Heart Infusion, estolate and RV11-RV15 previously hydrolized, unit assumed
# C. diphtheriae SS 19 = assay type: cell-based; conditions: Brain Heart Infusion, estolate and RV11-RV15 previously hydrolized, unit assumed
# N. gonorreae SS 27 = assay type: cell-based; conditions: Brain Heart Infusion, estolate and RV11-RV15 previously hydrolized, unit assumed
# H. influentiae SS 02 = assay type: cell-based; conditions: Brain Heart Infusion, estolate and RV11-RV15 previously hydrolized, unit assumed
# H. pertussis SS 03 = assay type: cell-based; conditions: Brain Heart Infusion, estolate and RV11-RV15 previously hydrolized, unit assumed
# C. albicans SS 04 = assay type: cell-based; conditions: Brain Heart Infusion, estolate and RV11-RV15 previously hydrolized, unit assumed
# Cl. tetani SS 17 = assay type: cell-based; conditions: Brain Heart Infusion, estolate and RV11-RV15 previously hydrolized, unit assumed
# B. anthranis SS 09 = assay type: cell-based; conditions: B. anthranis SS 09 (14 bis); Brain Heart Infusion; estolate and RV11-RV15 previously hydrolized; unit assumed
# Acute toxicity = assay type: in vivo; conditions: mortality 10 days after treatment, mice
# Procedure: The acute toxicity was assessed in Swiss white mice by oral and intravenous route. The LD50 values have been calculated by the methods of Probits, starting from the mortality recorded 10 days after the treatment.
# Staph. aureus SS 07 [4] = experiment: Experimental infection induced by Staph. aureus SS 07; assay type: in vivo, Swiss white mice; conditions: Staph. aureus SS 07, mg/kg of erythromycin, survival after 7 days, 10080 min
# Outline: (§2)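 Swiss mice of 20 g infected parenterally with lethal amounts of Staph. aureus SS 07 or D. pneumoniae SS 23. Antibiotics were given at infection and again 6 and 24 h later. ED50 was derived from survival at 7 days.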
# D. pneumoniae SS 23 = experiment: Experimental infection induced by D. pneumoniae SS 23; assay type: in vivo, Swiss white mice; conditions: D. pneumoniae SS 23, mg/kg of erythromycin, survival after 7 days, 10080 min
# Outline: as §2
# [5] = Mucolytic activity: obstruction of the bronchial tract after SO2 inhalation; assay type: in vivo, Sprague Dawley male rats; conditions: i.m., 250 mg/kg; SO2, 15 days
# [6] = Histological examination of bronchi after SO2 inhalation; assay type: in vivo, Sprague Dawley male rats; conditions: i.m., 250 mg/kg; for histological appearance of non obstructed bronchi: free non obstructed
structure (smiles),measurement,setting,value
"CC[C@H]1OC(=O)[C@H](C)[C@@H](O[C@H]2C[C@@](C)(OC)[C@@H](O)[C@H](C)O2)[C@H](C)[C@@H](O[C@@H]2O[C@H](C)C[C@H](N(C)C)[C@H]2O)[C@](C)(O)C[C@@H](C)C(=O)[C@H](C)[C@@H](O)[C@]1(C)O [RV03, erythromycyn-thiazolidin-carboxylate]",MIC,Staph. albus SS 03,0.05 µg/mL
same,MIC,Staph. albus SS 04,0.025 µg/mL
same,MIC,Staph. aureus SS 07 [1],0.025 µg/mL
same,MIC,Staph. aureus SS 08,0.025 µg/mL
same,MIC,Staph. aureus SS 09,0.05 µg/mL
same,MIC,Staph. aureus SS 10,0.1 µg/mL
same,MIC,[2],1.5 µg/mL
same,MIC,[3],1.5 µg/mL
same,MIC,Strept. faecalis SS 19,0.05 µg/mL
same,MIC,S. lutea ATCC 9341,0.025 µg/mL
same,MIC,B. subtilis ATCC 6633,0.05 µg/mL
same,MIC,B. subtilis SS 127,0.025 µg/mL
same,MIC,B. anthranis SS 08,0.2 µg/mL
same,MIC,Br. melitensis SS 19,6 µg/mL
same,MIC,Br. abortus SS 7,6 µg/mL
same,MIC,Citrobacter SS 05,> 200 µg/mL
same,MIC,Citrobacter SS 09,> 200 µg/mL
same,MIC,S. infantis SS 08,200 µg/mL
same,MIC,E. cloacae SS 07,> 200 µg/mL
same,MIC,E. aerogenes SS 011,50 µg/mL
same,MIC,Ps. aeruginosa SS 10,100 µg/mL
same,MIC,E. coli SS 04,100 µg/mL
same,MIC,E. coli SS 05,50 µg/mL
same,MIC,E. coli SS 07,50 µg/mL
same,MIC,Pr. mirabilis SS 09,> 200 µg/mL
same,MIC,Pr. vulgaris SS 10,> 200 µg/mL
same,MIC,Kl. aerogenes SS 71,50 µg/mL
same,MIC,H. tubercolosis SS 03,25 µg/mL
same,MIC,Kl. pneumoniae SS 04,100 µg/mL
same,MIC,Sr. marcescens SS 03,100 µg/mL
same,MIC,C. diphtheriae SS 19,0.025 µg/mL
same,MIC,N. gonorreae SS 27,0.8 µg/mL
same,MIC,H. influentiae SS 02,1.5 µg/mL
same,MIC,H. pertussis SS 03,0.4 µg/mL
same,MIC,C. albicans SS 04,200 µg/mL
same,MIC,Cl. tetani SS 17,0.4 µg/mL
same,MIC,B. anthranis SS 09,0.4 µg/mL
same,LD50 (reliability limits),"Acute toxicity; i.v., 14400 min",491.96 (552.31-438.20) mg.kg
same,LD50 (reliability limits),Acute toxicity; os,> 3000 mg·kg
same,ED50 (reliability limits),Staph. aureus SS 07 [4]; os,2.14 (2.42-1.89) mg/kg
same,ED50 (reliability limits),Staph. aureus SS 07 [4]; s.c.,1.00 (1.36-0.73) mg/kg
same,ED50 (reliability limits),D. pneumoniae SS 23; os,119.21 (142.60-99.65) mg/kg
same,ED50 (reliability limits),D. pneumoniae SS 23; s.c.,47.98 (59.13-38.93) mg/kg
same,Partial obstruction (% incidence),[5],6.66%
same,"Total obstruction, compact plug (% incidence)",[5],26.66%
same,"Total obstruction, nodular mass (% incidence)",[5],20%
same,"Total obstruction, pimply mass (% incidence)",[5],6.66%
same,histological appearance of non obstructed bronchi,[6],practically normal appearance
same,histological appearance of obstructed bronchial tract,[6],an appearance like that of the control animals
"CC[C@H]1OC(=O)[C@H](C)[C@@H](O[C@H]2C[C@@](C)(OC)[C@@H](O)[C@H](C)O2)[C@H](C)[C@@H](O[C@@H]2O[C@H](C)C[C@H](N(C)C)[C@H]2O)[C@](C)(O)C[C@@H](C)C(=O)[C@H](C)[C@@H](O)[C@]1(C)O [RV04, erythromycin-S-carboxymethylcysteinate]",MIC,Staph. albus SS 03,0.1 µg/mL
same,MIC,Staph. albus SS 04,0.05 µg/mL
same,MIC,Staph. aureus SS 07 [1],0.025 µg/mL
same,MIC,Staph. aureus SS 08,0.05 µg/mL
same,MIC,Staph. aureus SS 09,0.025 µg/mL
same,MIC,Staph. aureus SS 10,0.2 µg/mL
same,MIC,[2],1.5 µg/mL
same,MIC,[3],1.5 µg/mL
same,MIC,Strept. faecalis SS 19,0.05 µg/mL
same,MIC,S. lutea ATCC 9341,0.01 µg/mL
same,MIC,B. subtilis ATCC 6633,0.025 µg/mL
same,MIC,B. subtilis SS 127,0.025 µg/mL
same,MIC,B. anthranis SS 08,0.4 µg/mL
same,MIC,Br. melitensis SS 19,6 µg/mL
same,MIC,Br. abortus SS 7,6 µg/mL
same,MIC,Citrobacter SS 05,> 200 µg/mL
same,MIC,Citrobacter SS 09,> 200 µg/mL
same,MIC,S. infantis SS 08,100 µg/mL
same,MIC,E. cloacae SS 07,> 200 µg/mL
same,MIC,E. aerogenes SS 011,50 µg/mL
same,MIC,Ps. aeruginosa SS 10,100 µg/mL
same,MIC,E. coli SS 04,100 µg/mL
same,MIC,E. coli SS 05,50 µg/mL
same,MIC,E. coli SS 07,25 µg/mL
same,MIC,Pr. mirabilis SS 09,200 µg/mL
same,MIC,Pr. vulgaris SS 10,> 200 µg/mL
same,MIC,Kl. aerogenes SS 71,50 µg/mL
same,MIC,H. tubercolosis SS 03,50 µg/mL
same,MIC,Kl. pneumoniae SS 04,100 µg/mL
same,MIC,Sr. marcescens SS 03,> 200 µg/mL
same,MIC,C. diphtheriae SS 19,0.205 µg/mL
same,MIC,N. gonorreae SS 27,0.8 µg/mL
same,MIC,H. influentiae SS 02,1.5 µg/mL
same,MIC,H. pertussis SS 03,0.8 µg/mL
same,MIC,C. albicans SS 04,100 µg/mL
same,MIC,Cl. tetani SS 17,0.2 µg/mL
same,MIC,B. anthranis SS 09,0.2 µg/mL
same,LD50 (reliability limits),"Acute toxicity; i.v., 14400 min",439.46 (545.44-354.08) mg.kg
same,LD50 (reliability limits),Acute toxicity; os,> 3000 mg·kg
same,ED50 (reliability limits),Staph. aureus SS 07 [4]; os,2.31 (2.55-2.09) mg/kg
same,ED50 (reliability limits),Staph. aureus SS 07 [4]; s.c.,1.00 (1.24-0.80) mg/kg
same,ED50 (reliability limits),D. pneumoniae SS 23; os,119.31 (152.88-92.95) mg/kg
same,ED50 (reliability limits),D. pneumoniae SS 23; s.c.,60.17 (70.74-51.18) mg/kg
same,Partial obstruction (% incidence),[5],13.33%
same,"Total obstruction, compact plug (% incidence)",[5],20%
same,"Total obstruction, nodular mass (% incidence)",[5],13.33%
same,"Total obstruction, pimply mass (% incidence)",[5],6.66%
same,histological appearance of non obstructed bronchi,[6],practically normal appearance
same,histological appearance of obstructed bronchial tract,[6],an appearance like that of the control animals
